Where a SMILES comes first, the peptide text is derived from it. [ ]: non-standard residue; d: D form. Nle = CCCC[C@H](N)C(=O)O
What was measured:
[1] = system: ABCA1-mediated cholesterol efflux; test: 3H-cholesterol efflux to apoA-I from free cholesterol-loaded macrophages; format: cell-based, mouse; conditions: for cholesterol efflux to apoA-I from FC-loaded NPC+/− macrophages: 200 μM, 18 h apoA-1 incubation (FIG. 9D)
Procedure: Peritoneal macrophages from C57 mice were incubated for 5 h with 100 μg/ml ^3H-cholesterol-labeled acetyl-LDL in DMEM, 0.2% BSA, in the presence of 10 μg/ml 58035.
Acetyl-LDL (800 μg) was incubated with 10 μCi ^3H-cholesterol for 30 min at 37° C., followed by addition of 8 ml of DMEM, 0.2% BSA. The macrophages were incubated with this medium for 5 h, washed 3 times with PBS, and then incubated with DMEM, 0.2% BSA for 15 min at 37° C. After washing with PBS, the macrophages were incubated with DMEM, 0.2% BSA, containing either 15 μg/ml apoAI or 20 μg/ml HDL2. At the indicated time points, 100 μl of media was removed and centrifuged for 5 min at 14,000 rpm to pellet cellular debris. The radioactivity in this fraction of media was quantitated by liquid scintillation counting. After the last time point, the remainder of the media was removed, and the cells were dissolved in 0.5 ml of 0.1 N NaOH containing 0.5% sodium dodecylsulfate (5 h at room temperature). A 100 μl-aliquot of the cell lysate was counted, and the percent efflux was calculated as (media cpm)[…](cell +media cpm)×100. Total protein in the cell lysate was determined using the Bio-Rad DC protein assay kit. Note that there was no statistical difference in cellular cpm or protein between cholesteryl ester- and free cholesterol-loaded macrophages.

ABCA1 protein = test: ABCA1 immunoblot of total and cell-surface protein in cholesterol-loaded macrophages; format: cell-based, mouse; conditions: for decrease in ABCA1 protein in FC-loaded macrophages: calpeptin 40 μM, PD150606 25 μM (data not shown); for decrease in ABCA1 protein in free cholesterol-loaded macrophages: 50 μM
Procedure: Macrophages were pre-incubated for 14 h with 50 μg/ml acetyl-LDL in DMEM, 0.2% BSA, in the absence (CE) or presence (FC) of 58035. The cells were then incubated for 5 h with 100 μg/ml acetyl-LDL in DMEM, 0.2% BSA, in the absence or presence of 58035, respectively, with no further additions (Control) or in the presence of 10 μg/ml cycloheximide, 50 μM ALLN, or 50 μM lactacystin as indicated. Aliquots of cell lysates were then assayed for ABCA1 and β-actin protein by immunoblot analysis.
Macrophages were pre-incubated for 14 h with 50 μg/ml acetyl-LDL in DMEM, 0.2% BSA, in the absence (CE) or presence (FC) of 58035. […] Aliquots of total cell protein (top panel) or cell-surface protein (bottom panel) were then subjected to immunoblot analysis for ABCA1 and the standards β-actin or β1-integrin.
Macrophage monolayers in 35-mm dishes were washed with ice-cold PBS 3 times and then incubated with ice-cold PBS containing 0.5 mg/ml NHS—SS-biotin (Pierce) for 30 minutes at 4° C. After washing 5 times with ice-cold PBS containing 20 mM Tris-HCl, pH 8.0, the cells were scraped into PBS and pelleted by centrifugation. The pelleted macrophages were lysed in 50 μl RIPA buffer (0.5% sodium deoxycholate, 0.1% SDS, 1% Triton X-100, 20 mM Tris, 150 mM NaCl, and 5 mM EDTA, pH 8) containing 1 mM PMSF. […] of the lysate were subjected directly to 4-20% gradient SDS-polyacrylamide gel electrophoresis (SDS-PAGE) for determination of total ABCA1. The rest of the cell lysate was affinity-purified to isolate biotinylated proteins. Briefly, the cell lysates were diluted to 150 μl in RIPA buffer and incubated with 50 μl immobilized streptavidin agarose (Pierce), which was pre-washed three times with RIPA buffer at 0° C. for 2 h with gentle shaking. The agarose was pelleted by centrifugation using a microcentrifuge at 5,000 rpm for 2 min; the pellet was resuspended in 1 ml RIPA buffer, and the process was repeated 5 times. The agarose was resuspended 30 μl SDS-PAGE loading buffer containing 330 mM β-mercaptoethanol at 37^6C for 15 min and subjected to SDS-PAGE as above. ABCA1 and β-integrin were detected by Western blot using anti-ABCA1 and anti-β-integrin anti-sera. The blots were reprobed with anti-β-actin antibody, which detected no actin signal, thus verifying that no cytosolic protein was biotinylated by the procedure.
Peritoneal macrophages were lysed in RIPA buffer containing 1 mM PMSF. Nuclei were removed by centrifugation at 3000×g for 10 min at 4° C. […] For Western blot detection of ABCA1, anti-ABCA1 antiserum was used. Signals were detected using HRP-conjugated secondary anti-bodies (Bio-Rad) and ECL (Amersham Pharmacia Biotech). The membranes were reprobed with anti-β actin monoclonal antibody or anti-β1-integrin anti-serum for the proper internal controls. The relative intensities of the bands were determined by densitometry.

[2] = system: unfolded protein response (UPR); test: Immunoblot analysis of UPR markers (CHOP, PERK, IRE1α, XBP-1) in macrophages; conditions: 58035 alone, 5 h (FIG. 16B, lane 2)
Procedure: For detection of PERK, nuclei-free cell extracts were immunoprecipitated with anti-PERK antiserum and then immunoblotted, while for detection of ATF-4 and CHOP, immunoblots were performed on nuclear extracts. Lamin B, a nuclear protein, was used as the loading control.
Immunoprecipitation and immunoblot detection for IRE1α and PERK were conducted as described by Harding et al. (35). Immunoblot analyses of XBP-1, ATF4, and CHOP were carried out as described previously (36,38) with minor modifications. Briefly, cells were lysed in RIPA buffer to prepare whole-cell lysates or to prepare nuclei by centrifugation. The whole-cell lysates or nuclei were resuspended in 2×SDS-PAGE loading buffer and incubated at 95° C. for 10 min. Whole cell (100 μg) or nuclear lysates (20 μg) were electrophoresed on 4-20% gradient SDS-PAGE gels and electrotransferred to 0.22-μm nitrocellulose membrane using a Bio-Rad mini-transfer tank. After incubation with primary antibodies, the protein bands were detected with HRP-conjugated secondary antibodies (Bio-Rad) and ECL (Amersham Pharmacia Biotech). The membranes were reprobed with an anti-β-actin monoclonal antibody or an anti-lamin B serum to control for differences in loading.

[3] = system: ABCA1 transporter activity (phospholipid efflux to apoA-I); test: 3H-phospholipid efflux to apoA-I from free cholesterol-loaded macrophages; format: cell-based, mouse; conditions: 15 min at 37° C.
Procedure: Aliquots of free cholesterol-loaded cells were incubated for 15 min at 37° C. in the absence or presence of 0.5% or 0.2% […] (CD). This treatment removes about 30% of total cellular cholesterol. All cells were then chased with media containing 15 μg/ml apoA-I for 3.33 h and phospholipid efflux was measured as in FIG. 6C.
Macrophages were labeled with ^3H-choline (5 μCi/ml) in DMEM, 10% FBS, for 24 h. After washing three times with PBS, the macrophages were incubated with 100 μg/ml acetyl-LDL+58035 in DMEM, 0.2% BSA, for 5 h. The cells were then incubated with 15 μg/ml apoA-1 in DMEM, 0.2% BSA, for the indicated time periods. ^3H-choline-containing phospholipids in aliquots of the medium were extracted in chloroform:methanol (2:1, v/v), and those remaining in the cells in hexane:isopropyl alcohol (3:2, v/v). The radioactivity was measured by scintillation counting.

`COc1ccc(Cl)cc1C(=O)NCCc1ccc(S(=O)(=O)NC(=O)NC2CCCCC2)cc1` [glyburide] was tested, and the “cholesterol efflux to apoA-I from FC-loaded NPC+/− macrophages” value [1] was “effectively blocked”.
In the case of `O=C(O)/C(S)=C/c1ccc(I)cc1` [PD150606], the “decrease in ABCA1 protein in FC-loaded macrophages” value (ABCA1 protein) is reported as “did not affect the decrease in ABCA1”.
With `CCCC[C@@H](C=O)NC(=O)[C@H](CC(C)C)NC(=O)[C@H](CC(C)C)NC(C)=O` [ALLN] (Ac-Leu-Leu-[Nle]-aldehyde) the “decrease in ABCA1 protein in free cholesterol-loaded macrophages” value (ABCA1 protein; 5 h (FIG. 8B)) was “blocked the decrease in ABCA1”.
In the case of `[Na+].[Na+].[Na+].[O]=[V]([O-])([O-])[O-]` [ortho-vanadate, sodium orthovanadate], the “cholesterol efflux to apoA-I from FC-loaded NPC+/− macrophages” value [1] is reported as “effectively blocked”.
In the case of `C[C@@H]1C[C@@H]([C@H](O)CC2CC(=O)NC(=O)C2)C(=O)[C@@H](C)C1` [cycloheximide], the “decrease in ABCA1 protein in free cholesterol-loaded cells” value (ABCA1 protein; 10 μg/ml cycloheximide, 5 h (FIG. 8B)) is reported as “insensitive”.
In the case of `CCCCCCCCCC[Si](C)(C)CCC(=O)NC(Cc1ccc(C)cc1)c1ccccc1` (stereo not shown) [compound 58035, 3-[decyldimethylsilyl]-N-[2-(4-methylphenyl)-1-phenylethyl] propanamide], the “PERK activation in macrophages” value [2] is reported as “partially activate PERK”.
With `CCCC[C@@H](C=O)NC(=O)[C@H](CC(C)C)NC(=O)OCc1ccccc1` [calpeptin] the “decrease in ABCA1 protein in FC-loaded macrophages” value (ABCA1 protein) was “did not affect the decrease in ABCA1”.
methyl-β-cyclodextrin was tested, and the “defect in phosphatidylcholine efflux to apoA-I of free cholesterol-loaded cells” value ([3]; 0.5% or 0.2% (FIG. 6E)) was “reversed” and the “removal of total cellular cholesterol” value ([3]; 0.5% or 0.2%, FC-loaded cells) was “about 30%”.
`CN(C)CCCN1c2ccccc2CCc2ccccc21` [imipramine] was tested, and the “induction of cholesterol efflux to ApoA-1” value ([1]; FC-loaded macrophages (FIGS. 11A, 11B)) was “marked ability to induce cholesterol efflux to ApoA-1”, the “restoration of ABCA1-dependent efflux” value ([1]; optimal low doses, FC-loaded macrophages (FIG. 12A)) was “restored ABCA1-dependent efflux” and the “ABCA1 protein expression in free cholesterol-loaded cells” value (ABCA1 protein; low concentrations) was “markedly enhance”.
For `CC(=O)N[C@@H](CSC(=O)[C@]1([C@@H](O)C(C)C)NC(=O)[C@H](C)[C@@H]1O)C(=O)O` [lactacystin], the “decrease in ABCA1 protein in free cholesterol-loaded macrophages” value (ABCA1 protein; 5 h (FIG. 8B)) was “blocked the decrease in ABCA1”.

Reference: patent US20040259853A1, “Methods for preventing acute clinical vascular events in a subject” (The Trustees of Columbia University, priority 2000, published 2004)
